Test results as given in patent US20030134842A1, “METHODS FOR THE TREATMENT OR PREVENTION OF INFLAMMATORY DISEASES CHARACTERIZED BY ABNORMAL CELL PROLIFERATION” (priority 1997, published 2003).
Like-named read-outs stand apart in the source and are kept apart here. Values belong to the compound of their own block, whether it stands above or below them.

How the values were obtained:
[1] = test system: NIH 3T3 mouse fibroblast cells; assay: Mitogenic assay (mitogen-induced cell proliferation); format: cell-based; settings: Mus musculus, NIH3T3, NIH 3T3 mouse fibroblast cells, mitogen-induced cell proliferation
[2] = biological target: T1, Ca2+-activated potassium channel (Gardos channel) of erythrocytes (Homo sapiens, UniProt O15554); assay: Gardos channel assay; format: cell-based; settings: for inhibition at 10 µM: 10 μM compound
T1 construct: endogenous in cells; host or cells: erythrocytes
T1 sequence (O15554 whole entry): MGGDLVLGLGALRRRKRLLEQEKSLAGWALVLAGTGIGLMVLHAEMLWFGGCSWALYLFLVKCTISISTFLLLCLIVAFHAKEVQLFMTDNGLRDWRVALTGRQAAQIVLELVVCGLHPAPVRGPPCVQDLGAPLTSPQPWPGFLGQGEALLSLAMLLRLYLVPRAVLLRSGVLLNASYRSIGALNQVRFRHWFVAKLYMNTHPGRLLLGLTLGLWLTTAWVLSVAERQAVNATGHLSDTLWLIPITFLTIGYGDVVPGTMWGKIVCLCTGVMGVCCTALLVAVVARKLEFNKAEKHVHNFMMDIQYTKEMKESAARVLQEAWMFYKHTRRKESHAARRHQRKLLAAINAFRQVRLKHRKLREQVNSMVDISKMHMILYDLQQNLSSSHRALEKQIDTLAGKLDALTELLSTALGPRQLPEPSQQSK

A549 = assay: SRB antiproliferative assay A549; format: cell-based; settings: Homo sapiens
From the text: (§1) The cells were passaged using Trypsin (Gibco).

MMRU = assay: SRB antiproliferative assay MMRU; format: cell-based; settings: Homo sapiens
From the text: as §1

HT29 = assay: SRB antiproliferative assay HT29; format: cell-based; settings: Homo sapiens
From the text: as §1

HeLa = assay: SRB antiproliferative assay HeLa; format: cell-based; settings: Homo sapiens; HeLa (Cervical), 5% FCS/5 day incubation; read-out: Test Compound IC50
From the text: as §1

CaSki = assay: SRB antiproliferative assay CaSki; format: cell-based; settings: Homo sapiens, Ca-Ski; CaSki (Cervical), 5% FCS/5 day incubation; read-out: Test Compound IC50
From the text: as §1

MDA-MB-23 = assay: SRB antiproliferative assay MDA-MB-23; format: cell-based; settings: MDA-MB-23 (Breast), 5% FCS/5 day incubation; read-out: Test Compound IC50
From the text: as §1

MCF7 = assay: SRB antiproliferative assay MCF7; format: cell-based; settings: Homo sapiens
From the text: as §1

HTB174 = assay: SRB antiproliferative assay HTB174; format: cell-based; settings: HTB174 (Lung), 5% FCS/5 day incubation; read-out: Test Compound IC50
From the text: as §1

HEPG2 = assay: SRB antiproliferative assay HEPG2; format: cell-based; settings: Homo sapiens
From the text: as §1

DU-145 = assay: SRB antiproliferative assay DU-145; format: cell-based; settings: Homo sapiens; DU-145 (Prostate), 5% FCS/5 day incubation; read-out: Test Compound IC50
From the text: as §1

SK-MEL-28 = assay: SRB antiproliferative assay SK-MEL-28; format: cell-based; settings: Homo sapiens; SK-MEL-28 (Melanoma), 5% FCS/5 day incubation; read-out: Test Compound IC50
From the text: as §1

HCT-15 = assay: SRB antiproliferative assay HCT-15; format: cell-based; settings: Homo sapiens; HCT-15 (Colon), 5% FCS/5 day incubation; read-out: Test Compound IC50
From the text: as §1

ACHN = assay: SRB antiproliferative assay ACHN; format: cell-based; settings: Homo sapiens; ACHN (Renal), 5% FCS/5 day incubation; read-out: Test Compound IC50
From the text: as §1

U118MG = assay: SRB antiproliferative assay U118MG; format: cell-based; settings: Homo sapiens, U-118-MG
From the text: as §1

SK-OV-3 = assay: SRB antiproliferative assay SK-OV-3; format: cell-based; settings: Homo sapiens; SK-OV-3 (Ovary), 5% FCS/5 day incubation; read-out: Test Compound IC50
From the text: as §1

HUVEC = assay: SRB assay normal cells HUVEC; format: cell-based; settings: HUVEC (Normal human), 5% FCS/5 day incubation; read-out: Test Compound IC50
From the text: as §1

GM = assay: SRB assay normal cells GM; format: cell-based; settings: GM (Normal human), 5% FCS/5 day incubation; read-out: Test Compound IC50
From the text: as §1

3T3 = assay: SRB assay normal cells 3T3; format: cell-based; settings: NIH3T3; 3T3 (Normal mouse), 5% FCS/5 day incubation; read-out: Test Compound IC50
From the text: as §1

L929 = assay: SRB assay normal cells L929; format: cell-based; settings: L929 (Normal mouse), 5% FCS/5 day incubation; read-out: Test Compound IC50
From the text: as §1

IC50 [2]: 0.085 to 0.093 µM
inhibition at 10 µM [2]: 97.3%
melting point: 159 to 161 °C
SMILES: COC(=O)N1Cc2ccccc2C(c2ccccc2Cl)c2ccccc21 (stereo not shown) [Compound 9, N-methoxycarbonyl-11-(2′-chlorophenyl)-5,6-dihydro-11H-dibenz[b,e]azepine]
IC50 [1]: 2.1 µM

IC50 [2]: > 10 µM
inhibition at 10 µM [2]: 14.8%
IC50 (A549; A549, A549, 5% FCS/2 days, read-out: Test Compound IC50 Value in Cell Lines): > 10 µM
IC50 (HT29; HT-29, HT29, 5% FCS/2 days, read-out: Test Compound IC50 Value in Cell Lines): 10 µM
melting point: 155 to 165 °C
SMILES: O=C(Oc1ccccc1)N1Cc2ccccc2C(c2ccccc2)c2ccccc21 (stereo not shown) [Compound 14, N-phenoxycarbonyl-11-phenyl-5,6-dihydro-11H-dibenz[b,e]azepine]
IC50 [1]: 0.04 µM
IC50 (MMRU; MMRU, 5% FCS/2 days, read-out: Test Compound IC50 Value in Cell Lines): > 10 µM

IC50 [2]: > 10 µM
inhibition at 10 µM [2]: 13.6%
IC50 (HeLa): 0.6 µM
IC50 (MDA-MB-23): > 1 µM
IC50 (MCF7; MCF7 (Breast), 5% FCS/5 day incubation, read-out: Test Compound IC50): > 1 µM
IC50 (A549; A549, A549 (Lung), 5% FCS/5 day incubation, read-out: Test Compound IC50): > 1 µM
IC50 (HEPG2; HEPG2 (Hepatocel), 5% FCS/5 day incubation, read-out: Test Compound IC50): 0.9 µM
IC50 (DU-145): > 1 µM
IC50 (SK-MEL-28): 0.9 µM
IC50 (HT29; HT-29, HT29 (Colon), 5% FCS/5 day incubation, read-out: Test Compound IC50): 0.7 µM
IC50 (HCT-15): 0.9 µM
IC50 (ACHN): > 1 µM
IC50 (SK-OV-3): > 1 µM
SMILES: O=C(c1ccc([N+](=O)[O-])cc1)N1Cc2ccccc2C(c2ccccc2)c2ccccc21 (stereo not shown) [Compound 20]
IC50 [1]: 1.7 µM
IC50 (CaSki): 0.9 µM
IC50 (HTB174): 0.7 µM
IC50 (MMRU; MMRU (Melanoma), 5% FCS/5 day incubation, read-out: Test Compound IC50): 0.5 µM
IC50 (U118MG; U118MG (CNS), 5% FCS/5 day incubation, read-out: Test Compound IC50): 0.9 µM
IC50 (HUVEC): > 1 µM
IC50 (GM): > 1 µM
IC50 (3T3): > 1 µM
IC50 (L929): 0.9 µM

IC50 [2]: > 10 µM
inhibition at 10 µM [2]: 0.8%
IC50 (MCF7; MCF7, 5% FCS/3 days, read-out: Test Compound IC50 Value in Cell Lines): 5.9 µM
IC50 (A549; A549, A549, 5% FCS/3 days, read-out: Test Compound IC50 Value in Cell Lines): 7 µM
IC50 (HEPG2; HEPG2, 5% FCS/3 days, read-out: Test Compound IC50 Value in Cell Lines): 5.4 µM
IC50 (HT29; HT-29, HT29, 5% FCS/3 days, read-out: Test Compound IC50 Value in Cell Lines): 7.2 µM
melting point: 95 to 99 °C
SMILES: O=C(Oc1ccccc1)N1Cc2ccccc2C(c2ccccc2Cl)c2ccccc21 (stereo not shown) [Compound 26, N-phenoxycarbonyl-11-(2′-chlorophenyl)-5,6-dihydro-11H-dibenz[b,e]azepine]
IC50 [1]: 0.04 to 0.9 µM
IC50 (MMRU; MMRU, 5% FCS/3 days, read-out: Test Compound IC50 Value in Cell Lines): 4.9 µM
IC50 (U118MG; U118MG, 5% FCS/3 days, read-out: Test Compound IC50 Value in Cell Lines): 5.7 µM
